Results: patent US5536853A, “Opiate receptor ligands” (Chiron Corporation, priority 1994, dated 1996)

Biological target: T1, μ-specific opiate receptor (Rattus norvegicus, UniProt P33535)
T1 construct: Rat forebrains were homogenized and washed; from tissue; host or cells: rat forebrain membranes
Assay: in vitro solution-phase radioligand competition assay ([3H]-DAMGO, rat forebrain membranes)
Type: binding
Details: 1 nM [3H]-DAMGO, pH 7.5, 1 hr room temperature
Description: Compounds were screened in vitro using the following assay:
High-affinity ligands for the μ-specific opiate receptor were identified from a diverse peptoid library by testing the pools of compounds in solution-phase radioligand competition assays, and tracing the binding activity to individual compounds by iterative resynthesis and screening of smaller sub-pools.
Rat forebrains were homogenized and washed in 50 mM Tris, pH 7.5 containing 20 mM NaCl, 5 mM EGTA, 2 mM MgCl2, 21 μg/mL aprotinin, 0.5 mg/L leupeptin, 0.7 mg/L pepstatin, 0.2 Mm PMSF. 50 μL of membrane (10 mg/mL protein) were dispensed into 1 mL of 50 mM Tris, pH 7.5, 1 nM [^3 H]-DAMGO and the peptoid mixture. All assays were performed at 100 nM per peptoid.
Nonspecific binding was determined as [^3 H]-DAMGO bound in the presence of 1 μM naloxone. Incubation was for 1 hr at room temperature. Unbound radioactivity was removed by rinsing the membranes on Whatman GF/B glass fiber filters. Each filter was washed 3 times with 3 mL of 50 mM Tris, pH 7.5, 4° C. Filters were soaked overnight in 5 mL of Beckman ReadySafe scintillation cocktail and then counted for one minute in a Wallac 1409 liquid scintillation counter. Assays were performed in duplicate.

T1 sequence (P33535 whole entry): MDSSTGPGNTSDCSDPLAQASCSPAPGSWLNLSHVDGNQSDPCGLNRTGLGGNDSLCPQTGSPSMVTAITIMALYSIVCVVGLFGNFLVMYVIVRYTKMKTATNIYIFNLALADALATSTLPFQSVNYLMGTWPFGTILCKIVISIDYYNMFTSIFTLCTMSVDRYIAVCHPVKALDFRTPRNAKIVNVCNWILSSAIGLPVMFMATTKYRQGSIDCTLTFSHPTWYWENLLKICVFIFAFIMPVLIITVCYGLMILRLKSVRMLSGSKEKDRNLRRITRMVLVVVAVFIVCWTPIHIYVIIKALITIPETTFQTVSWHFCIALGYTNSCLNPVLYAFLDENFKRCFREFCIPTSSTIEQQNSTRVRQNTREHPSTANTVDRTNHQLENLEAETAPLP

Row | SMILES | Ki
1 | COc1ccc(CN(CC(=O)N(CCc2ccc(O)cc2)CC(N)=O)C(=O)CNCC(c2ccccc2)c2ccccc2)cc1OC [CHIR-4537, Nbhm-Nddb-Nhtyr] | 45 nM
2 | CCCCCN(CC(=O)N(CCc1ccc(O)cc1)CC(N)=O)C(=O)CNCC(c1ccccc1)c1ccccc1 [CHIR-4534, Nbhm-Npen-Nhtyr] | 30 nM
3 | NC(=O)CN(CCc1ccc(O)cc1)C(=O)CN(Cc1ccc2c(c1)OCO2)C(=O)CNCC(c1ccccc1)c1ccccc1 [CHIR-4531, Nbhm-Nmdb-Nhtyr] | 7 nM

Same assay, conditions: at 100 nM, 1 nM [3H]-DAMGO, pH 7.5, 1 hr room temperature

Row | SMILES | inhibition at 0.1 µM
4 | COc1cc(CN(CC(=O)N(CCc2ccc(O)cc2)CC(N)=O)C(=O)CNCC(c2ccccc2)c2ccccc2)cc(OC)c1OC [CHIR 4626, Nbhm-Ntrnb-Nhtyr] | 86%
5 | NC(=O)CN(CCc1ccc(O)cc1)C(=O)CN(Cc1ccc2c(c1)OCO2)C(=O)CNCCC(c1ccccc1)c1ccccc1 [CHIR 4622, Nbhe-Nmdb-Nhtyr] | 78%
6 | NC(=O)CN(CCc1ccc(O)cc1)C(=O)CN(Cc1ccc2c(c1)OCO2)C(=O)CNCC=C(c1ccccc1)c1ccccc1 [CHIR 5062, Nbvp-Nmdb-Nhtyr] | 65%
7 | CC(NCC(c1ccccc1)c1ccccc1)C(=O)N(CC(=O)N(CCc1ccc(O)cc1)CC(N)=O)Cc1ccc2c(c1)OCO2 (stereo not shown) [CHIR 5052, Nbha-Nmdb-Nhtyr] | 73%
8 | NC(=O)CN(CCc1ccc(O)cc1)C(=O)CN(Cc1ccccc1)C(=O)CNCC(c1ccccc1)c1ccccc1 [CHIR 4627, Nbhm-Nphe-Nhtyr] | 90%
9 | NC(=O)CN(CCc1ccccc1)C(=O)CN(Cc1ccccc1)C(=O)CNCC(c1ccccc1)c1ccccc1 [CHIR 4628, Nbhm-Nphe-Nhphe] | 77%
10 | NC(=O)CN(CCc1ccc(O)cc1)C(=O)CN(Cc1ccc2c(c1)OCO2)C(=O)C=CCNCC(c1ccccc1)c1ccccc1 [CHIR 5045, Nvbhm-Nmdb-Nhtyr] | 58%
